Data as given in patent USRE39149E1, “Method of administering azithromycin” (Pfizer Inc., priority 1994, dated 2006).

Assay: Stability of azithromycin at acid pH / in stomach juices
Type: physicochemical
Text: Thus, without being bound to any mechanism of action, it is surprising that rapid disintegration in the GI tract appears to be of importance to the invention.

Compound: CC[C@H]1OC(=O)[C@H](C)[C@@H](O[C@H]2C[C@@](C)(OC)[C@@H](O)[C@H](C)O2)[C@H](C)[C@@H](O[C@@H]2O[C@H](C)C[C@H](N(C)C)[C@H]2O)[C@](C)(O)C[C@@H](C)CN(C)[C@H](C)[C@@H](O)[C@]1(C)O [azithromycin, 9a-aza-9a-methyl-9-deoxo-9a-homoerythromycin A]
- stability at low (acid) pH (on the order of the pH of stomach acid): unstable
- stability on exposure to stomach juices (stomach juices, acid pH): breaks down
